We go through 23 compounds from ChEMBL document CHEMBL3352079, “Pyrimidine-based tricyclic molecules as potent and orally efficacious inhibitors of wee1 kinase” (ACS Med Chem Lett, 2015).

One may read the Ki as the equilibrium dissociation constant of an inhibitor or competing ligand from its target. The term EC50 denotes the concentration that produces a half-maximal response. Usually half-life stands for how long it takes for the measured level to halve. The clearance is the rate of elimination divided by the concentration. High values mean a high capacity for elimination, low ones a low capacity for elimination. The AUC is the area under the concentration-time curve, a measure of exposure. A lower AUC goes with low exposure. Usually bioavailability stands for dose-corrected exposure relative to a reference, in per cent. A high value points to much systemic uptake. Broadly, the TGI is how far tumour growth fell short of that in controls.

The target of series [1] is T1, Wee1-like protein kinase (Homo sapiens, UniProt P30291). Kind of series: Inhibition of GST-tagged human Wee1.
Series [2] relates to NCI-H1299. Kind of series: Cytotoxicity against human NCI-H1299 cells assessed as cell viability after 72 hrs by CellTiterGlo assay. Type of series: functional, cell-based. The note with it: NCI-H1299, 72 h. (Cellular ATP, detected with luciferase, serves as a proxy for viable cell number.)
Series [3] addresses T1, Wee1-like protein kinase. Kind of series: Inhibition of human Weel1 in human NCI-H1299 cells assessed as phosphorylation of Cdk1 after overnight incubation by ELISA PD assay. Type of series: cell-based. For orientation: In an ELISA, binding on a coated surface is turned into a signal by an enzyme label.
A short description of series [4]: Half life in CD-1 mouse at 3 mg/kg, iv. The format is ADME, organism-based. Also on record: dose 3 mg/kg, route intravenous. The settings on record: in vivo.
Series [5] in a line: Clearance in CD-1 mouse at 3 mg/kg, iv. Type of series: ADME, organism-based. Also on record: dose 3 mg/kg, route intravenous. The settings on record: in vivo.
The nature of series [6]: AUC in CD-1 mouse at 10 mg/kg, po. Type of series: ADME, organism-based. Also on record: dose 10 mg/kg, route oral. The note with it: plasma.
The nature of series [7]: Oral bioavailability in CD-1 mouse at 10 mg/kg. The settings on record: in vivo. Type of series: ADME, organism-based.
Series [8] relates to NCI-H1299. Kind of series: Antitumor activity against human NCI-H1299 cells xenografted in mouse assessed as depletion of pY15 bands at 100 mg/kg, po after 6 hrs. Type of series: functional, organism-based. Also on record: dose 100 mg/kg. In general terms: In xenograft studies the graft and the host belong to different species.
Series [9] relates to NCI-H1299. Kind of series: Antitumor activity against human NCI-H1299 cells xenografted in mouse assessed as depletion of pY15 bands at 100 mg/kg, po after 10 hrs. The format is functional, organism-based. Also on record: dose 100 mg/kg.
The subject of series [10] is NCI-H1299. Kind of series: Antitumor activity against human NCI-H1299 cells xenografted in mouse assessed as tumor growth inhibition at 50 mg/kg, po qd from day 28 to 41 after tumor inoculation. The note with it: NCI-H1299, 672 h, read-out: TGI. The format is functional.
The test system of series [11] is NCI-H1299. Kind of series: Antitumor activity against human NCI-H1299 cells xenografted in mouse assessed as tumor growth inhibition at 50 mg/kg, po qd from day 28 to 41 after tumor inoculation in presence of 10 mg/kg irinotecan. Type of series: functional.
The subject of series [12] is NCI-H1299. Kind of series: Antitumor activity against human NCI-H1299 cells xenografted in mouse assessed as tumor growth delay at 50 mg/kg, po qd from day 28 to 41 after tumor inoculation in presence of 10 mg/kg irinotecan. Type of series: functional.
Series [13] can be described thus: Plasma concentration in human NCI-H1299 cells xenografted in mouse at 100 mg/kg, po qd after 6 hrs. The format is ADME, organism-based. Also on record: dose 100 mg/kg, route oral.
Series [14] in a line: Plasma concentration in human NCI-H1299 cells xenografted in mouse at 100 mg/kg, po qd after 10 hrs. The format is ADME, organism-based. Also on record: dose 100 mg/kg, route oral.
Series [15] can be described thus: Drug uptake in human NCI-H1299 cells xenografted in mouse assessed in tumor at 100 mg/kg, po qd after 6 hrs. The format is ADME, organism-based, Neoplasm. Also on record: dose 100 mg/kg, route oral. The note with it: read-out: Drug uptake.
A short description of series [16]: Drug uptake in human NCI-H1299 cells xenografted in mouse assessed in tumor at 100 mg/kg, po qd after 10 hrs. Type of series: ADME, organism-based, Neoplasm. Also on record: dose 100 mg/kg, route oral. The settings on record: read-out: Drug uptake.
Series [17] has as its system Mus musculus. Kind of series: In vivo inhibition of Wee1 in human NCI-H1299 cells xenografted in mouse assessed as pY15 CDK expression at 100 mg/kg, po qd after 6 to 10 hrs. Type of series: functional, organism-based. Also on record: dose 100 mg/kg.
In series [18] the test system is NCI-H1299. Kind of series: Antitumor activity against human NCI-H1299 cells xenografted in mouse assessed as tumor growth inhibition at 10 mg/kg, po qd from day 28 to 41 after tumor inoculation. The format is functional. The settings on record: NCI-H1299, 672 h, read-out: TGI.

Activity calls are given as the source filed them. The calls are words filed in the database; no cut-off is given here.

T1 sequence (P30291 whole entry): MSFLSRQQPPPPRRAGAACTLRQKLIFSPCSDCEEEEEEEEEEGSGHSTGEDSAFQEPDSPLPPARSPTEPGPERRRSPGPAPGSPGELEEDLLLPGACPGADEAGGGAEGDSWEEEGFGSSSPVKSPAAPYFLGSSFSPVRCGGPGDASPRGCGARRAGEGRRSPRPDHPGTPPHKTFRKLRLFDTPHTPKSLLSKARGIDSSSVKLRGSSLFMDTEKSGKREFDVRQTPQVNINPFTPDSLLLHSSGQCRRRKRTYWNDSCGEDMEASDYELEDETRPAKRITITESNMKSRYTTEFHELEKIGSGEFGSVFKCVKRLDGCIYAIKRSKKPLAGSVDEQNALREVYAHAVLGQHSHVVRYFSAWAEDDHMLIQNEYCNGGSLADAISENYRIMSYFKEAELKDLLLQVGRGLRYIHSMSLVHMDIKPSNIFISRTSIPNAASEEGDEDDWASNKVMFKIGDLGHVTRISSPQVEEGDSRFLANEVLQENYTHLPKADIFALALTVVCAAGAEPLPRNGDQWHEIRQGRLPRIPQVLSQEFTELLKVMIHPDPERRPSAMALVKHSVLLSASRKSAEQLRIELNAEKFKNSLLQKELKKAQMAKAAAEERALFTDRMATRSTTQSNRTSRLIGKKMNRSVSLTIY

`CN1Cc2cc(Nc3ncc4c(=O)n(-c5c(F)cccc5Cl)c5nccn5c4n3)ccc2C2(CC2)C1` yielded a Ki in [1] of less than 1 nM. The EC50 in series [2] is 210 nM; in series [3] it was 29 nM. In [4], this compound had a half-life of 156 min. The compound further had a clearance in [5] of 18.3 mL/min/kg. In addition, the AUC in series [6] came to 12 µM·h. In [7], this compound showed a bioavailability of 68%.

Take `O=c1c2cnc(NC3CCCCC3)nc2n2ccnc2n1-c1ccccc1Cl`: the Ki in series [1] is greater than 3140 nM.

In series [1], `CN1CCN(c2ccccc2Nc2ncc3c(=O)n(-c4ccccc4Cl)c4nccn4c3n2)CC1` registered a Ki greater than 3140 nM.

In the case of `CN1CCN(c2cccc(Nc3ncc4c(=O)n(-c5ccccc5Cl)c5nccn5c4n3)c2)CC1`, the affinity in [1], expressed as Ki, was 6.2 nM. Besides, the EC50 in series [2] came out at 6500 nM; in [3], 1500 nM.

In turn, `CN1CCCc2ccc(Nc3ncc4c(=O)n(-c5ccccc5Cl)c5nccn5c4n3)cc21` gave an inhibitory constant (Ki) in series [1] of 8.6 nM. For the same compound, the EC50 is greater than 10000 nM in series [2] and 2300 nM in series [3].

Take `CN1Cc2cc(Nc3ncc4c(=O)n(-c5ccccc5Cl)c5nccn5c4n3)ccc2C(C)(C)C1`: the Ki in series [1] was less than 1 nM. Moreover, the EC50 in series [2] amounted to 550 nM; in [3], 98 nM. For the same compound, the half-life in series [4] is 168 min. In series [5], this compound showed a clearance of 23.3 mL/min/kg. The AUC in [6] was found to be 12.3 µM·h. The bioavailability in [7] was 80%.

The compound `O=c1c2cnc(Nc3ccc(N4CCCCC4)cc3)nc2n2ccnc2n1-c1ccccc1Cl` showed a Ki in series [1] of 5.5 nM. For the same compound, the EC50 in series [2] came out at 9800 nM; in series [3] it was 3800 nM.

`O=c1c2cnc(Nc3ccc4c(c3)CCCC4)nc2n2ccnc2n1-c1ccccc1Cl` yielded a Ki in series [1] of 26 nM. Moreover, the EC50 in series [2] worked out at 7300 nM; in [3], 6000 nM.

`CN1Cc2cc(Nc3ncc4c(=O)n(-c5c(Cl)cccc5Cl)c5nccn5c4n3)ccc2C2(CC2)C1` gave a Ki in series [1] of less than 1 nM. In addition, the EC50 in series [2] was 220 nM; in [3], 27 nM.

For `CN1CCN(c2ccc(Nc3ncc4c(=O)n(-c5c(Cl)cccc5Cl)c5nccn5c4n3)cc2)CC1`, the Ki in [1] was less than 1 nM. Further, the EC50 in series [2] is 190 nM; in [3], 87 nM. In [4], this compound gave a half-life of 102 min. Besides, the clearance in series [5] was 33.3 mL/min/kg. Also, the exposure (AUC) in series [6] is 6.5 µM·h. In addition, in [7], the bioavailability was 55%.

On to `CN1CCN(c2ccc(Nc3ncc4c(=O)n(-c5ccccc5Cl)c5nccn5c4n3)cc2)CC1`, for which the Ki in series [1] amounted to 2.3 nM. The figures for the EC50 in series [2] and in [3] were 1000 nM and 370 nM, respectively. This compound also showed a half-life in [4] of 114 min. Moreover, the clearance in series [5] was 30 mL/min/kg. The same compound showed an AUC in series [6] of 8.4 µM·h. In series [7], this compound returned a bioavailability of 72%.

`CN1Cc2cc(Nc3ncc4c(=O)n(-c5c(F)cccc5Cl)c5nccn5c4n3)ccc2C(C)(C)C1`: the Ki in series [1] is less than 1 nM. Moreover, the EC50 in series [2] amounted to 310 nM; in [3] it was 60 nM. In [4], this compound showed a half-life of 168 min. Further, the clearance in series [5] was 9.17 mL/min/kg. Also, in series [6], the AUC worked out at 24 µM·h. This compound displayed a bioavailability in series [7] of 94%. The inhibition result in series [8], in series [9] and in series [17] was “Active” each time. Besides, the inhibition in vivo at 50 mg/kg in [10] is 43%. Besides, the TGI in series [11] came to 83%. The Activity in series [12] is given as 25%. The values for the concentration at 6 h in series [13] and in series [15] were 20 µM and 47.1 µM, respectively. The concentration at 10 h in [14] is 13.7 µM; in series [16], 53.4 µM.

In series [1], `CN1CCCc2cc(Nc3ncc4c(=O)n(-c5ccccc5Cl)c5nccn5c4n3)ccc21` registered a Ki of 7.4 nM. The EC50 in series [2] was 9300 nM; in [3] it was 2700 nM.

Regarding `O=c1c2cnc(Nc3ccccc3)nc2n2ccnc2n1-c1ccccc1Cl`, in series [1], the affinity, expressed as Ki, was 21 nM. In addition, the EC50 in series [2] is 5900 nM; in [3], 6800 nM.

The compound `O=c1c2cnc(Nc3ccc(C4CCCCC4)cc3)nc2n2ccnc2n1-c1ccccc1Cl` showed a Ki in series [1] of 87 nM. Further, the EC50 in [2] was greater than 10000 nM; in [3], 10000 nM.

In series [1], `CN1Cc2cc(Nc3ncc4c(=O)n(-c5ccccc5Cl)c5nccn5c4n3)ccc2C2(CC2)C1` showed a Ki of 1.2 nM. The results for the EC50 in series [2] and in [3] were 690 nM and 100 nM, respectively. Also, the half-life in series [4] is 138 min. The compound also gave a clearance in [5] of 25 mL/min/kg. This compound also had an AUC in series [6] of 9.8 µM·h. The bioavailability in series [7] was 70%.

In the case of `CN1CCN(c2ccc(Nc3ncc4c(=O)n(-c5c(F)cccc5Cl)c5nccn5c4n3)cc2)CC1`, the EC50 in series [2] turned out to be 450 nM.

Regarding `CN1CCC(c2ccc(Nc3ncc4c(=O)n(-c5ccccc5Cl)c5nccn5c4n3)cc2)CC1`, the Ki in [1] is 8.3 nM. Further, the EC50 was 9600 nM in series [2] and 3100 nM in [3].

In series [1], `CC(=O)N1CCN(c2ccc(Nc3ncc4c(=O)n(-c5ccccc5Cl)c5nccn5c4n3)cc2)CC1` gave a Ki of 6.6 nM. The concentration for a half-maximal effect (EC50) in series [2] stood at 3300 nM; in series [3], 1100 nM.

`CCc1c2c(nc3ccc(OC(=O)N4CCC(N5CCCCC5)CC4)cc13)-c1cc3c(c(=O)n1C2)COC(=O)[C@]3(O)CC` [IRINOTECAN]: the inhibition in vivo at 10 mg/kg in series [18] is 67%. In series [11], the TGI amounted to 83%.

For the compound `CC(=O)N1Cc2cc(Nc3ncc4c(=O)n(-c5ccccc5Cl)c5nccn5c4n3)ccc2C2(CC2)C1`, affinity in [1] was put at a Ki of 5.4 nM. The EC50 in series [2] came out at 2000 nM; in series [3], 620 nM.

For `CN1CCc2ccc(Nc3ncc4c(=O)n(-c5ccccc5Cl)c5nccn5c4n3)cc2C1`, the affinity in [1], expressed as Ki, was 1.6 nM. The EC50 in series [2] came out at 770 nM; in [3], 220 nM. In [4], this compound showed a half-life of 90 min. The compound further had a clearance in series [5] of 36.7 mL/min/kg. In [6], this compound yielded an exposure (AUC) of 5.2 µM·h. In [7], this compound came in with a bioavailability of 52%.

In the case of `CN1Cc2cc(Nc3ncc4c(=O)n(-c5c(Cl)cccc5Cl)c5nccn5c4n3)ccc2C(C)(C)C1`, in series [1], the inhibition constant Ki was less than 1 nM. Further, the EC50 in [2] is 230 nM; in series [3], less than 13 nM. The compound further gave a half-life in [4] of 234 min. The same compound had a clearance in series [5] of 16.2 mL/min/kg. Also, the AUC in series [6] is 9.8 µM·h. Further, the bioavailability in [7] came to 49%.
